Source: patent US20230085307A1, “PYRIDAZINONE COMPOUND AND HERBICIDE” (NISSAN CHEMICAL CORPORATION, priority 2019, published 2023)

Key:
late watergrass = assay: Test Example 1: herbicidal activity, application before weed generation under submerged conditions (Table 16, symbol A); type: in vivo, late watergrass (Echinochloa oryzicola)
How it was run: (§1)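 Submerged Wagner pots (alluvial soil, 4 cm water) sown with weed seeds and planted with 2.5-leaf rice seedlings; emulsifiable concentrate diluted in water applied to water surface on sowing day. Held in greenhouse at 25-30 °C; injury scored 0-5 by herbicidal rate after three weeks.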

Japanese bulrush = assay: Test Example 1: herbicidal activity, application before weed generation under submerged conditions (Table 16, symbol B); type: in vivo, Japanese bulrush (Schoenoplectus juncoides)
How it was run: as §1

oval-leafed pondweed = assay: Test Example 1: herbicidal activity, application before weed generation under submerged conditions (Table 16, symbol C); type: in vivo, oval-leafed pondweed (Monochoria vaginalis)
How it was run: as §1

barnyard grass [1] = assay: Test Example 3: herbicidal effect by foliage application, Wagner pot (Table 18, symbol H); type: in vivo, barnyard grass (Echinochloa crus-galli); details: amount of applied herbicide 320 g/ha
How it was run: (§2)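 Plants were sown in alluvial soil held under 0.1–0.5 cm standing water and grown 14 days in a greenhouse at 25–30 °C. An emulsifiable formulation, water-diluted to the set dose, was then sprayed onto the foliage, and effects were scored three weeks later using previously defined criteria.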

Chinese sprangletop = assay: Test Example 3: herbicidal effect by foliage application, Wagner pot (Table 18, symbol D); type: in vivo, chinese sprangletop (Leptochloa chinensis); details: amount of applied herbicide 320 g/ha
How it was run: as §2

rice flat sedge = assay: Test Example 3: herbicidal effect by foliage application, Wagner pot (Table 18, symbol E); type: in vivo, rice flat sedge (Cyperus iria); details: amount of applied herbicide 320 g/ha
How it was run: as §2

southern crabgrass [2] = assay: Test Example 4: herbicidal effect by soil treatment (Table 19, symbol F); type: in vivo, southern crabgrass (Digitaria ciliaris); details: amount of applied herbicide 320 g/ha
How it was run: (§3)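 Emulsion of test compound, water-diluted to predetermined amount, sprayed on soil after sowing (seed depth ~1.5 cm, sterilized diluvial soil). Greenhouse, 25–30° C. Effect graded at three weeks post-spray.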

green foxtail [3] = assay: Test Example 4: herbicidal effect by soil treatment (Table 19, symbol G); type: in vivo, green foxtail (Setaria viridis); details: amount of applied herbicide 320 g/ha
How it was run: as §3

barnyard grass [4] = assay: Test Example 4: herbicidal effect by soil treatment (Table 19, symbol H); type: in vivo, barnyard grass (Echinochloa crus-galli); details: amount of applied herbicide 320 g/ha
How it was run: as §3

wild oat [5] = assay: Test Example 4: herbicidal effect by soil treatment (Table 19, symbol I); type: in vivo, wild oat (Avena fatua); details: amount of applied herbicide 320 g/ha
How it was run: as §3

blackgrass [6] = assay: Test Example 4: herbicidal effect by soil treatment (Table 19, symbol J); type: in vivo, blackgrass (Alopecurus myosuroides); details: amount of applied herbicide 320 g/ha
How it was run: as §3

Italian ryegrass [7] = assay: Test Example 4: herbicidal effect by soil treatment (Table 19, symbol K); type: in vivo, Italian ryegrass (Lolium multiflorum); details: amount of applied herbicide 320 g/ha
How it was run: as §3

windgrass [8] = assay: Test Example 4: herbicidal effect by soil treatment (Table 19, symbol L); type: in vivo, windgrass (Apera spica-venti); details: amount of applied herbicide 320 g/ha
How it was run: as §3

velvetleaf [9] = assay: Test Example 4: herbicidal effect by soil treatment (Table 19, symbol M); type: in vivo, velvetleaf (Abutilon theophrasti); details: amount of applied herbicide 320 g/ha
How it was run: as §3

redroot pigweed [10] = assay: Test Example 4: herbicidal effect by soil treatment (Table 19, symbol N); type: in vivo, redroot pigweed (Amaranthus retroflexus); details: amount of applied herbicide 320 g/ha
How it was run: as §3

lambsquarters [11] = assay: Test Example 4: herbicidal effect by soil treatment (Table 19, symbol O); type: in vivo, lambsquarters (Chenopodium album); details: amount of applied herbicide 320 g/ha
How it was run: as §3

chickweed [12] = assay: Test Example 4: herbicidal effect by soil treatment (Table 19, symbol P); type: in vivo, common chickweed (Stellaria media); details: amount of applied herbicide 320 g/ha
How it was run: as §3

persian speedwell [13] = assay: Test Example 4: herbicidal effect by soil treatment (Table 19, symbol R); type: in vivo, Persian speedwell (Veronica persica); details: amount of applied herbicide 320 g/ha
How it was run: as §3

southern crabgrass [14] = assay: Test Example 5: herbicidal effect by foliage application, plastic box (Table 20, symbol F); type: in vivo, southern crabgrass (Digitaria ciliaris); details: foliage application, AAH 320 g/ha, evaluated three weeks after application
How it was run: (§4)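 Post-emergence foliar test in sterilized diluvial soil. Compound applied as water-diluted emulsion at a predetermined rate to 14-day-old plants; evaluation at three weeks.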

green foxtail [15] = assay: Test Example 5: herbicidal effect by foliage application, plastic box (Table 20, symbol G); type: in vivo, green foxtail (Setaria viridis); details: foliage application, AAH 320 g/ha, evaluated three weeks after application
How it was run: as §4

barnyard grass [16] = assay: Test Example 5: herbicidal effect by foliage application, plastic box (Table 20, symbol H); type: in vivo, barnyard grass (Echinochloa crus-galli); details: foliage application, AAH 320 g/ha, evaluated three weeks after application
How it was run: as §4

wild oat [17] = assay: Test Example 5: herbicidal effect by foliage application, plastic box (Table 20, symbol I); type: in vivo, wild oat (Avena fatua); details: foliage application, AAH 320 g/ha, evaluated three weeks after application
How it was run: as §4

blackgrass [18] = assay: Test Example 5: herbicidal effect by foliage application, plastic box (Table 20, symbol J); type: in vivo, blackgrass (Alopecurus myosuroides); details: foliage application, AAH 320 g/ha, evaluated three weeks after application
How it was run: as §4

Italian ryegrass [19] = assay: Test Example 5: herbicidal effect by foliage application, plastic box (Table 20, symbol K); type: in vivo, Italian ryegrass (Lolium multiflorum); details: foliage application, AAH 320 g/ha, evaluated three weeks after application
How it was run: as §4

windgrass [20] = assay: Test Example 5: herbicidal effect by foliage application, plastic box (Table 20, symbol L); type: in vivo, windgrass (Apera spica-venti); details: foliage application, AAH 320 g/ha, evaluated three weeks after application
How it was run: as §4

velvetleaf [21] = assay: Test Example 5: herbicidal effect by foliage application, plastic box (Table 20, symbol M); type: in vivo, velvetleaf (Abutilon theophrasti); details: foliage application, AAH 320 g/ha, evaluated three weeks after application
How it was run: as §4

redroot pigweed [22] = assay: Test Example 5: herbicidal effect by foliage application, plastic box (Table 20, symbol N); type: in vivo, redroot pigweed (Amaranthus retroflexus); details: foliage application, AAH 320 g/ha, evaluated three weeks after application
How it was run: as §4

lambsquarters [23] = assay: Test Example 5: herbicidal effect by foliage application, plastic box (Table 20, symbol O); type: in vivo, lambsquarters (Chenopodium album); details: foliage application, AAH 320 g/ha, evaluated three weeks after application
How it was run: as §4

chickweed [24] = assay: Test Example 5: herbicidal effect by foliage application, plastic box (Table 20, symbol P); type: in vivo, common chickweed (Stellaria media); details: foliage application, AAH 320 g/ha, evaluated three weeks after application
How it was run: as §4

persian speedwell [25] = assay: Test Example 5: herbicidal effect by foliage application, plastic box (Table 20, symbol R); type: in vivo, Persian speedwell (Veronica persica); details: foliage application, AAH 320 g/ha, evaluated three weeks after application
How it was run: as §4

[26] = amount of applied herbicide 320 g/ha

| SMILES | herbicidal effect on H: barnyard grass (barnyard grass [1]) | herbicidal effect on D: Chinese sprangletop (Chinese sprangletop) | herbicidal effect on E: rice flat sedge (rice flat sedge) | F: southern crabgrass, herbicidal effect (criteria 0-5) (southern crabgrass [14]) | G: green foxtail, herbicidal effect (criteria 0-5) (green foxtail [15]) | H: barnyard grass, herbicidal effect (criteria 0-5) (barnyard grass [16]) | I: wild oat, herbicidal effect (criteria 0-5) (wild oat [17]) | J: blackgrass, herbicidal effect (criteria 0-5) (blackgrass [18]) | K: Italian ryegrass, herbicidal effect (criteria 0-5) (Italian ryegrass [19]) | L: windgrass, herbicidal effect (criteria 0-5) (windgrass [20]) | M: velvetleaf, herbicidal effect (criteria 0-5) (velvetleaf [21]) | N: redroot pigweed, herbicidal effect (criteria 0-5) (redroot pigweed [22]) | O: lambsquarters, herbicidal effect (criteria 0-5) (lambsquarters [23]) | P: chickweed, herbicidal effect (criteria 0-5) (chickweed [24]) | R: persian speedwell, herbicidal effect (criteria 0-5) (persian speedwell [25]) | other results |
| --- | --- | --- | --- | --- | --- | --- | --- | --- | --- | --- | --- | --- | --- | --- | --- | --- |
| CCSCc1ccc(-c2sc3ccc(F)cc3c2-c2c(O)c(C)nn(C)c2=O)cc1 [2-319] | 5 (Herbicidal rate of 90% or more (almost completely withered)) | 4 (Herbicidal rate of 70% or more and less than 90%) | 5 (Herbicidal rate of 90% or more (almost completely withered)) | 5 (Herbicidal rate of 90% or more (almost completely withered)) | 5 (Herbicidal rate of 90% or more (almost completely withered)) | 5 (Herbicidal rate of 90% or more (almost completely withered)) | 4 (Herbicidal rate of 70% or more and less than 90%) | 4 (Herbicidal rate of 70% or more and less than 90%) | 4 (Herbicidal rate of 70% or more and less than 90%) | 4 (Herbicidal rate of 70% or more and less than 90%) | 5 (Herbicidal rate of 90% or more (almost completely withered)) | 5 (Herbicidal rate of 90% or more (almost completely withered)) | 5 (Herbicidal rate of 90% or more (almost completely withered)) | 5 (Herbicidal rate of 90% or more (almost completely withered)) | 5 (Herbicidal rate of 90% or more (almost completely withered)) | Herbicidal effect on A: late watergrass (grade 0-5) (late watergrass; 320 g/ha applied herbicide): 4 (Herbicidal rate of 70% or more and less than 90%); Herbicidal effect on B: Japanese bulrush (grade 0-5) (Japanese bulrush; 320 g/ha applied herbicide): 2 (Herbicidal rate of 20% or more and less than 40%); Herbicidal effect on C: oval-leafed pondweed (grade 0-5) (oval-leafed pondweed; 320 g/ha applied herbicide): 3 (Herbicidal rate of 40% or more and less than 70%); herbicidal effect on F: southern crabgrass (southern crabgrass [2]): 4 (Herbicidal rate of 70% or more and less than 90%); herbicidal effect on G: green foxtail (green foxtail [3]): 4 (Herbicidal rate of 70% or more and less than 90%); herbicidal effect on H: barnyard grass (barnyard grass [4]): 3 (Herbicidal rate of 40% or more and less than 70%); herbicidal effect on I: wild oat (wild oat [5]): 0 (Herbicidal rate of 5% or less (almost no effect)); herbicidal effect on J: blackgrass (blackgrass [6]): 0 (Herbicidal rate of 5% or less (almost no effect)); herbicidal effect on K: Italian ryegrass (Italian ryegrass [7]): 4 (Herbicidal rate of 70% or more and less than 90%); herbicidal effect on L: windgrass (windgrass [8]): 1 (Herbicidal rate of 5% or more and less than 20%); herbicidal effect on M: velvetleaf (velvetleaf [9]): 3 (Herbicidal rate of 40% or more and less than 70%); herbicidal effect on N: redroot pigweed (redroot pigweed [10]): 4 (Herbicidal rate of 70% or more and less than 90%); herbicidal effect on O: lambsquarters (lambsquarters [11]): 3 (Herbicidal rate of 40% or more and less than 70%); herbicidal effect on P: chickweed (chickweed [12]): 0 (Herbicidal rate of 5% or less (almost no effect)); herbicidal effect on R: persian speedwell (persian speedwell [13]): 4 (Herbicidal rate of 70% or more and less than 90%) |
| COc1ccccc1-c1sc2ccc(C=O)cc2c1-c1c(O)c(C)nn(C)c1=O [2-395] | 3 (Herbicidal rate of 40% or more and less than 70%) | 3 (Herbicidal rate of 40% or more and less than 70%) | 3 (Herbicidal rate of 40% or more and less than 70%) | 3 (Herbicidal rate of 40% or more and less than 70%) | 4 (Herbicidal rate of 70% or more and less than 90%) | 3 (Herbicidal rate of 40% or more and less than 70%) | 0 (Herbicidal rate of 5% or less (almost no effect)) | 0 (Herbicidal rate of 5% or less (almost no effect)) | 0 (Herbicidal rate of 5% or less (almost no effect)) | 0 (Herbicidal rate of 5% or less (almost no effect)) | 5 (Herbicidal rate of 90% or more (almost completely withered)) | 5 (Herbicidal rate of 90% or more (almost completely withered)) | 5 (Herbicidal rate of 90% or more (almost completely withered)) | 5 (Herbicidal rate of 90% or more (almost completely withered)) | 4 (Herbicidal rate of 70% or more and less than 90%) | Herbicidal effect, A: late watergrass (late watergrass; [26]): 0 (Herbicidal rate of 5% or less (almost no effect)); Herbicidal effect, B: Japanese bulrush (Japanese bulrush; [26]): 2 (Herbicidal rate of 20% or more and less than 40%); Herbicidal effect, C: oval-leafed pondweed (oval-leafed pondweed; [26]): 0 (Herbicidal rate of 5% or less (almost no effect)); herbicidal effect, F: southern crabgrass (southern crabgrass [2]): 0 (Herbicidal rate of 5% or less (almost no effect)); herbicidal effect, G: green foxtail (green foxtail [3]): 0 (Herbicidal rate of 5% or less (almost no effect)); herbicidal effect, H: barnyard grass (barnyard grass [4]): 0 (Herbicidal rate of 5% or less (almost no effect)); herbicidal effect, I: wild oat (wild oat [5]): 0 (Herbicidal rate of 5% or less (almost no effect)); herbicidal effect, J: blackgrass (blackgrass [6]): 0 (Herbicidal rate of 5% or less (almost no effect)); herbicidal effect, K: Italian ryegrass (Italian ryegrass [7]): 0 (Herbicidal rate of 5% or less (almost no effect)); herbicidal effect, L: windgrass (windgrass [8]): 0 (Herbicidal rate of 5% or less (almost no effect)); herbicidal effect, M: velvetleaf (velvetleaf [9]): 0 (Herbicidal rate of 5% or less (almost no effect)); herbicidal effect, N: redroot pigweed (redroot pigweed [10]): 3 (Herbicidal rate of 40% or more and less than 70%); herbicidal effect, O: lambsquarters (lambsquarters [11]): 3 (Herbicidal rate of 40% or more and less than 70%); herbicidal effect, P: chickweed (chickweed [12]): 0 (Herbicidal rate of 5% or less (almost no effect)); herbicidal effect, R: persian speedwell (persian speedwell [13]): 0 (Herbicidal rate of 5% or less (almost no effect)) |
